The values below are quoted from earlier work in patent US7741370B2, “Double salts of (−)-hydroxycitric acid and a process for preparing the same” (Laila Impex, priority 2004, dated 2010).

For data set [1] the following is noted: prior-art salt (US 5,783,603), statement in words.
The conditions of data set [2]: free acid form, forming a lactone; liquid form unstable during storage.

potassium salt of HCA: the hygroscopicity entry in data set [1] is “hygroscopic”. Turning to `O=C(O)CC(O)(C(=O)O)C(O)C(=O)O` (single isomer, unassigned; (-)) [(−)-hydroxycitric acid], the stability result in data set [2] is on record as “unstable”.
